We go through 26 molecules from US20130281399A1, “TREATMENT OF DISEASES BY EPIGENETIC REGULATION” (RVX Therapeutics Inc., priority 2012, published 2013).

For this assay, the target named is T1, Brd4 bromodomain 1 (Homo sapiens, UniProt O60885).
T1 construct: made in house; host or cells: E. coli BL21(DE3)
Briefly: Inhibition of binding of tetra-acetylated histone H4 to Brd4 bromodomain 1 (TR-FRET). The settings on record: His-tagged Brd4 bromodomain 1 200 nM, tetra-acetylated histone H4 peptide 25-50 nM, 2 hours room temperature. As to the method:
Proteins were cloned and overexpressed with a N-terminal 6×His tag, then purified by nickel affinity followed by size exclusion chromatography. Briefly, E. coli BL21(DE3) cells were transformed with a recombinant expression vector encoding N-terminally Nickel affinity tagged bromodomains from Brd2, Brd3, Brd4. Cell cultures were incubated at 37° C. with shaking to the appropriate density and induced overnight with IPTG. The supernatant of lysed cells was loaded onto Ni-IDA column for purification. Eluted protein was pooled, concentrated and further purified by size exclusion chromatography. Fractions representing monomeric protein were pooled, concentrated, aliquoted, and frozen at −80° C. for use in subsequent experiments.
For inhibition assays, serially diluted test compound was added to these reactions in a 0.2% final concentration of DMSO. Final buffer concentrations were 30 mM HEPES pH 7.4, 30 mM NaCl, 0.3 mM CHAPS, 20 mM phosphate pH 7.0, 320 mM KF, 0.08% BSA). […] The binding inhibitory activity was shown by a decrease in 665 nm fluorescence relative to 620 nm. IC50 values were determined from a dose response curve.
With `COc1cc(OC)c2c(=O)[nH]c(-c3ccc(N4C[C@@H](C)N[C@@H](C)C4)cc3)nc2c1` [Example 37, 2-(4-((3R,5S)-3,5-Dimethylpiperazin-1-yl)phenyl)-5,7-dimethoxyquinazolin-4(3H)-one], the “FRET activity (<50 uM)” value was “Active”. Next, `COc1cc(OC)c2c(=O)[nH]c(-c3ccc(N4CCN(C(C)=O)C(C)C4)cc3)nc2c1` (centres unmarked) [Example 38, 2-(4-(4-Acetyl-3-methylpiperazin-1-yl)phenyl)-5,7-dimethoxyquinazolin-4(3H)-one]: “Active”; `COc1cc(OC)c2c(=O)[nH]c(-c3ccc(N4CCC(NC(C)=O)C4)cc3)nc2c1` (centres unmarked) [Example 39, N-(1-(4-(5,7-Dimethoxy-4-oxo-3,4-dihydroquinazolin-2-yl)phenyl)pyrrolidin-3-yl)acetamide]: “Active”. Turning to `COc1cc(OC)c2c(=O)[nH]c(-c3ccc(N4CCC(N(C(C)=O)C(C)C)CC4)cc3)nc2c1` [Example 40, N-(1-(4-(5,7-dimethoxy-4-oxo-3,4-dihydroquinazolin-2-yl)phenyl)piperidin-4-yl)-N-isopropylacetamide], the “FRET activity (<50 uM)” value is listed as “Inactive”.

Turning to `CC(C)N1CCN(c2ccc(-c3nc4cccc(Cl)c4c(=O)[nH]3)cc2)CC1` [Example 41, 5-Chloro-2-(4-(4-isopropylpiperazin-1-yl)phenyl)quinazolin-4(3H)-one], the “FRET activity (<50 uM)” value is reported as “Inactive”. Next, `COc1cc(OC)c2c(=O)[nH]c(-c3ccc(N4C[C@@H](C)N(C(C)C)[C@@H](C)C4)cc3)nc2c1` [Example 42, 2-(4-((3R,5S)-4-Isopropyl-3,5-dimethylpiperazin-1-yl)phenyl)-5,7-dimethoxyquinazolin-4(3H)-one]: “Active”; `COc1cc(OC)c2c(=O)[nH]c(-c3ccc(C4CCNCC4)cc3)nc2c1` [Example 43, 5,7-Dimethoxy-2-(4-(piperidin-4-yl)phenyl)quinazolin-4(3H)-one]: “Active”; `CNC1CCN(c2ccc(-c3nc4cc(OC)cc(OC)c4c(=O)[nH]3)cc2)C1` (centres unmarked) [Example 44, 5,7-Dimethoxy-2-(4-(3-(methylamino)pyrrolidin-1-yl)phenyl)quinazolin-4(3H)-one]: “Active”. Turning to `COc1cc(OC)c2c(=O)[nH]c(-c3ccc(N4CCC(N(C)C(C)=O)C4)cc3)nc2c1` (centres unmarked) [Example 46, N-(1-(4-(5,7-dimethoxy-4-oxo-3,4-dihydroquinazolin-2-yl)phenyl)pyrrolidin-3-yl)-N-methylacetamide], the “FRET activity (<50 uM)” value was “Active”. Turning to `COc1cc(OC)c2c(=O)[nH]c(-c3ccc(N4CCC(NC(C)C)CC4)cc3)nc2c1` [Example 47, 2-(4-(4-(Isopropylamino)piperidin-1-yl)phenyl)-5,7-dimethoxyquinazolin-4(3H)-one], the “FRET activity (<50 uM)” value is recorded as “Active”.

Take `COc1cc(OC)c2c(=O)[nH]c(-c3ccc(N4CCNC(C)C4)cc3)nc2c1` (centres unmarked) [Example 48, 5,7-Dimethoxy-2-(4-(3-methylpiperazin-1-yl)phenyl)quinazolin-4(3H)-one]: the “FRET activity (<50 uM)” value is “Active”. Next, `COc1cc(OC)c2c(=O)[nH]c(-c3ccc(N4CCC(N(Cc5ccccc5)C(C)=O)CC4)nc3)nc2c1` [Example 49, N-Benzyl-N-(1-(5-(5,7-dimethoxy-4-oxo-3,4-dihydroquinazolin-2-yl)pyridin-2-yl)piperidin-4-yl)acetamide]: “Active”; `COc1cc(OC)c2c(=O)[nH]c(-c3ccc(N4CCC(NCc5ccccc5)CC4)nc3)nc2c1` [Example 50, 2-(6-(4-(Benzylamino)piperidin-1-yl)pyridin-3-yl)-5,7-dimethoxyquinazolin-4(3H)-one]: “Active”; `COc1cc(OC)c2c(=O)[nH]c(-c3ccc(N4CCN(C=O)CC4)cc3)nc2c1` [Example 51, 4-(4-(5,7-Dimethoxy-4-oxo-3,4-dihydroquinazolin-2-yl)phenyl)piperazine-1-carbaldehyde]: “Active”. With `COc1cc(OC)c2c(=O)[nH]c(-c3ccc(N4CCC(=O)CC4)cc3)nc2n1` [Example 52, 5,7-Dimethoxy-2-(4-(4-oxopiperidin-1-yl)phenyl)pyrido[2,3-d]pyrimidin-4(3H)-one], the “FRET activity (<50 uM)” value is on record as “Inactive”. With `COc1cc(OC)c2c(=O)[nH]c(-c3ccc4[nH]c(CO)cc4c3)nc2c1` [Example 53, 2-(2-(Hydroxymethyl)-1H-indol-5-yl)-5,7-dimethoxyquinazolin-4(3H)-one] the entry was “Active”; with `COc1cc(OC)c2c(=O)[nH]c(-c3ccc4[nH]c(CCO)cc4c3)nc2c1` [Example 54, 2-(2-(2-Hydroxyethyl)-1H-indol-5-yl)-5,7-dimethoxyquinazolin-4(3H)-one], “Active”; with `COc1cc(OC)c2c(=O)[nH]c(-c3ccc4[nH]c(CN5CCCC5)cc4c3)nc2c1` [Example 55, 5,7-Dimethoxy-2-(2-(pyrrolidin-1-ylmethyl)-1H-indol-5-yl)quinazolin-4(3H)-one], “Active”. On to `COc1cc(OC)c2c(=O)[nH]c(-c3ccc4[nH]c(CCN5CCCC5)cc4c3)nc2c1` [Example 57, 5,7-Dimethoxy-2-(2-(2-(pyrrolidin-1-yl)ethyl)-1H-indol-5-yl)quinazolin-4(3H)-one], for which the “FRET activity (<50 uM)” value is given as “Active”. As for `COc1cc(OC)c2c(=O)[nH]c(-c3ccc4[nH]c(CN(C)C)cc4c3)nc2c1` [Example 58, 2-(2-((Dimethylamino)methyl)-1H-indol-5-yl)-5,7-dimethoxyquinazolin-4(3H)-one], the “FRET activity (<50 uM)” value was “Active”.

Consider `COc1cc(OC)c2c(=O)[nH]c(-c3ccc(NS(C)(=O)=O)cc3)nc2c1` [Example 59, N-(4-(5,7-Dimethoxy-4-oxo-3,4-dihydroquinazolin-2-yl)phenyl)methanesulfonamide], for which the “FRET activity (<50 uM)” value is recorded as “Active”.

In the case of `COc1cc(OC)c2c(=O)[nH]c(-c3ccc(Nc4ccncc4)cc3)nc2c1` [Example 60, 5,7-Dimethoxy-2-(4-(pyridin-4-ylamino)phenyl)quinazolin-4(3H)-one], the “FRET activity (<50 uM)” value is reported as “Active”.

In the case of `COc1cc(OC)c2c(=O)[nH]c(-c3ccc(Nc4ccc(C)cc4)cc3)nc2c1` [Example 61, 5,7-Dimethoxy-2-(4-(p-tolylamino)phenyl)quinazolin-4(3H)-one], the “FRET activity (<50 uM)” value was “Inactive”. As to `COc1cc(OC)c2c(=O)[nH]c(-c3ccc(Nc4cccnc4)cc3)nc2c1` [Example 62, 5,7-Dimethoxy-2-(4-(pyridin-3-ylamino)phenyl)quinazolin-4(3H)-one], the “FRET activity (<50 uM)” value is “Active”. With `COc1cc(OC)c2c(=O)[nH]c(-c3ccc(OC4CCN(C(=O)N(C)C)CC4)cc3)nc2c1` [Example 63, 4-(4-(5,7-Dimethoxy-4-oxo-3,4-dihydroquinazolin-2-yl)phenoxy)-N,N-dimethylpiperidine-1-carboxamide] the entry was “Active”. Next, `COc1cc(OC)c2c(=O)[nH]c(-c3ccc(OC4CCN(C(C)=O)CC4)cc3)nc2c1` [Example 64, 2-(4-(1-Acetylpiperidin-4-yloxy)phenyl)-5,7-dimethoxyquinazolin-4(3H)-one]: “Active”.
